Test results reported in patent US10017503B2, “Compounds, compositions, and methods for increasing CFTR activity” (Proteostasis Therapeutics, Inc., priority 2014, dated 2018).

molecular target: T1, ΔF508-CFTR (Homo sapiens, UniProt P13569, DEL508-508); experiment: hBE equivalent current (Ieq) assay; type: cell-based; conditions: AUC of equivalent chloride current as % of VX-809 (1 uM); compound at 10 uM and VX-809 at 1 uM; primary hBE cells homozygous ΔF508, 24 h treatment
T1 construct: Primary lung epithelial cells homozygous for the Cystic Fibrosis-causing ΔF508 mutation were differentiated for a minimum of 4 weeks; endogenous in cells; host or cells: primary lung (bronchial) epithelial cells (hBE) homozygous for ΔF508, differentiated at an air-liquid interface
T1 sequence (P13569 with tags, fused parts or gaps DEL508-508): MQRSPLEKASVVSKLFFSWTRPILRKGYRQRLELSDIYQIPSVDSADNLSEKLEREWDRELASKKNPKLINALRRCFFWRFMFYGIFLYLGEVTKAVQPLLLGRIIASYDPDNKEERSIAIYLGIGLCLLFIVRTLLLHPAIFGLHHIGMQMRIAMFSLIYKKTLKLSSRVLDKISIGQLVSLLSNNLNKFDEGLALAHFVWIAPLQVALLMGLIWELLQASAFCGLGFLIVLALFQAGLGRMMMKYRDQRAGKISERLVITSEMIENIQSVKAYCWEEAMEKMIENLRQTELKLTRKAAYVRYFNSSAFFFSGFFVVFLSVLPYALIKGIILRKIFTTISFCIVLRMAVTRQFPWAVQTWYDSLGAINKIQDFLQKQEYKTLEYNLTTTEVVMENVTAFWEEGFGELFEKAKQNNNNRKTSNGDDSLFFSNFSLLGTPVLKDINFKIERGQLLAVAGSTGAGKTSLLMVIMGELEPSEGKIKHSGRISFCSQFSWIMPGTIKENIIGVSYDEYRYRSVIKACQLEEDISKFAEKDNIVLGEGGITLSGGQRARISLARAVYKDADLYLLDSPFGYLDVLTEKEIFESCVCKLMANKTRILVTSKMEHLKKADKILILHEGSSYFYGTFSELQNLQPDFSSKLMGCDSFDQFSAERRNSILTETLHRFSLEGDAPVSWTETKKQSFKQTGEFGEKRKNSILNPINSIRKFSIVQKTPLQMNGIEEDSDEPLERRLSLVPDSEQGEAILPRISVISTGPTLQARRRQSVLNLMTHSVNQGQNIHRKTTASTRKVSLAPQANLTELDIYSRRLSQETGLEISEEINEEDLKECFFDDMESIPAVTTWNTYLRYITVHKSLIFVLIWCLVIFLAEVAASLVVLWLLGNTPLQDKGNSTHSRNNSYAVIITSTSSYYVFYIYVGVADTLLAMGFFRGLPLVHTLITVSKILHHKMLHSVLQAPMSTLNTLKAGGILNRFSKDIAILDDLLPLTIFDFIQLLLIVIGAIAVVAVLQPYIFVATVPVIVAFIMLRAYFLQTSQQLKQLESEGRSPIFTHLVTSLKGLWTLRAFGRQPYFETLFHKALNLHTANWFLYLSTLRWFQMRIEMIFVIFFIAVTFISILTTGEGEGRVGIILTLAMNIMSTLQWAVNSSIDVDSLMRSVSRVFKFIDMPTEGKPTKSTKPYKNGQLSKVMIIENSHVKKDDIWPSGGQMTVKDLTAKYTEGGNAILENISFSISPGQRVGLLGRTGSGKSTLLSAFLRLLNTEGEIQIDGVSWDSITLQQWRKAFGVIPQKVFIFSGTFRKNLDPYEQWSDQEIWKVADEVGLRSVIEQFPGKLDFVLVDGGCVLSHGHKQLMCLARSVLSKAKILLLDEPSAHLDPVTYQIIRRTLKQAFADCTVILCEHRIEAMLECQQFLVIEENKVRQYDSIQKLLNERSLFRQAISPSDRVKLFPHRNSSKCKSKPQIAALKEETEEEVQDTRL
Procedure: ii. hBE Equivalent Current (Ieq) Assay Primary lung epithelial cells homozygous for the Cystic Fibrosis-causing ΔF508 mutation were differentiated for a minimum of 4 weeks in an air-liquid interface on Costar 24 well HTS filter plates prior to the equivalent current (Ieq) measurements. Cells were apically mucus-washed for 30 minutes 24 h prior to treatment with compounds. The basolateral media was removed and replaced with media containing the compound of interest diluted to its final concentration from DMSO stocks. Treated cells were incubated at 37° C. and 5% CO2 for 24 hours. At the end of the treatment period, the media was changed to the Ieq experimental solution for 30 minutes before the experiment and plates are maintained in a CO2-free incubator during this period. The plates containing the cells were then placed in pre-warmed heating blocks at 36° C.±0.5 for 15 minutes before measurements are taken. The transepithelial voltage (VT) and conductance (GT) were measured using a custom 24 channel current clamp (TECC-24) with 24 well electrode manifold. The Ieq assay measurements were made following additions with standardized time periods: 1. The baseline VT and GT values were measured for approximately 20 minutes. 2. Benzamil was added to block ENaC for 15 minutes. 3. Forskolin plus VX-770 were added to maximally activate ΔF508-CFTR for 27 minutes. 4. Bumetanide was added to inhibit the NaK2Cl cotransporter and shut-off secretion of chloride. The activity data captured was the area under the curve (AUC) for the traces of the equivalent chloride current. The AUC was collected from the time of the forskolin/VX-770 addition until the inhibition by bumetanide addition. Correction in response to compound treatment was scored as the increase in the AUC for compound-treated samples over that of vehicle-treated samples. (** indicates activity ≥200% of VX-809 (1 uM) with compound at 10 uM and VX-809 at 1 uM; * indicates activity 100-200% of VX-809 (1 uM) with compound at 10 uM and VX-809 at 1 uM. ^## indicates activity ≥200% of VX-809 (3 uM) with compound at 10 uM and VX-809 at 3 uM; ^# indicates activity 100-200% of VX-809 (3 uM) with compound at 10 uM and VX-809 at 3 uM.

Row | Compound | Ieq activity
1 | CC(O)c1nnc(NS(=O)(=O)CCNC(=O)c2cc(-c3ccccc3)on2)s1 (stereo in doubt) [Compound B8, (S)—N-(2-(N-(5-(1-hydroxyethyl)-1,3,4-thiadiazol-2-yl)sulfamoyl)ethyl)-5-phenylisoxazole-3-carboxamide] | * (activity 100-200% of VX-809 (1 uM) with compound at 10 uM and VX-809 at 1 uM)
2 | CC(O)c1nnc(NS(=O)(=O)CCNC(=O)c2cc(-c3ccccc3)on2)s1 (stereo in doubt) [Compound B9, (R)—N-(2-(N-(5-(1-hydroxyethyl)-1,3,4-thiadiazol-2-yl)sulfamoyl)ethyl)-5-phenylisoxazole-3-carboxamide] | * (activity 100-200% of VX-809 (1 uM) with compound at 10 uM and VX-809 at 1 uM)
3 | O=C(NCCCNS(=O)(=O)c1ncc[nH]1)c1cc(-c2ccccc2)on1 [Compound B1] | ** (activity ≥200% of VX-809 (1 uM) with compound at 10 uM and VX-809 at 1 uM)
4 | CN(CCCNC(=O)c1cc(-c2ccccc2)on1)S(=O)(=O)c1ncc[nH]1 [Compound B2, N-(3-(N-methyl-1H-imidazole-2-sulfonamido)propyl)-5-phenylisoxazole-3-carboxamide] | ** (activity ≥200% of VX-809 (1 uM) with compound at 10 uM and VX-809 at 1 uM)
5 | O=C(NCCNS(=O)(=O)c1cc(CO)n[nH]1)c1cc(-c2ccccc2)on1 [Compound B3, N-(2-((3-(hydroxymethyl)-1H-pyrazole)-5-sulfonamido)ethyl)-5-phenylisoxazole-3-carboxamide] | * (activity 100-200% of VX-809 (1 uM) with compound at 10 uM and VX-809 at 1 uM)
6 | O=C(NCCCNS(=O)(=O)c1cc(CO)n[nH]1)c1cc(-c2ccccc2)on1 [Compound B4, N-(3-((3-(hydroxymethyl)-1H-pyrazole)-5-sulfonamido)propyl)-5-phenylisoxazole-3-carboxamide] | ** (activity ≥200% of VX-809 (1 uM) with compound at 10 uM and VX-809 at 1 uM)
7 | O=C(NCCCNS(=O)(=O)c1ncccn1)c1cc(-c2ccccc2)on1 [Compound B5, 5-phenyl-N-(3-(pyrimidine-2-sulfonamido)propyl)isoxazole-3-carboxamide] | ** (activity ≥200% of VX-809 (1 uM) with compound at 10 uM and VX-809 at 1 uM)
8 | O=C(NCCCNS(=O)(=O)c1ccccn1)c1cc(-c2ccccc2)on1 [Compound B6, 5-phenyl-N-(3-(pyridine-2-sulfonamido)propyl)isoxazole-3-carboxamide] | ** (activity ≥200% of VX-809 (1 uM) with compound at 10 uM and VX-809 at 1 uM)
9 | Nc1cc(CO)nn1S(=O)(=O)CCNC(=O)c1cc(-c2ccccc2)on1 [Compound B7, N-(2-((5-amino-3-(hydroxymethyl)-1H-pyrazol-1-yl)sulfonyl)ethyl)-5-phenylisoxazole-3-carboxamide] | * (activity 100-200% of VX-809 (1 uM) with compound at 10 uM and VX-809 at 1 uM)
10 | CN(CCCNC(=O)c1cc(-c2ccccc2)on1)S(=O)(=O)c1nccn1C [Compound B10, N-(3-((N-1-dimethyl-1H-imidazole)-2-sulfonamido)propyl)-5-phenylisoxazole-3-carboxamide] | * (activity 100-200% of VX-809 (1 uM) with compound at 10 uM and VX-809 at 1 uM)
11 | COCn1ccnc1S(=O)(=O)N(C)CCCNC(=O)c1cc(-c2ccccc2)on1 [Compound B11, N-(3-((1-(methoxymethyl)-N-methyl-1H-imidazole)-2-sulfonamido)propyl)-5-phenylisoxazole-3-carboxamide] | ** (activity ≥200% of VX-809 (1 uM) with compound at 10 uM and VX-809 at 1 uM)
